Laboratory results as given in PMC8435859 (Frontiers in Cellular and Infection Microbiology, 2021).
Like-named read-outs stand apart in the source and are kept apart here.

How the values were obtained:
GX_P2V = assay: microbe, parasite or virus in culture; type: cell-based, Pangolin coronavirus; conditions: for EC50: Pangolin coronavirus, Vero C1008, 72 h; for SI: CC50/EC50, GX_P2V in Vero E6
SARS-CoV-2 isolate WIV04 = assay: Anti-SARS-CoV-2 activity in vitro, viral yield in Vero E6 supernatant by qRT-PCR; type: cell-based, Severe acute respiratory syndrome coronavirus 2; conditions: for SI: CC50/EC50, SARS-CoV-2 WIV04 in Vero E6; for EC50: Severe acute respiratory syndrome coronavirus 2, Vero C1008, 24 h, SARS-CoV-2 WIV04 MOI 0.01, Vero E6, 24 h.p.i., supernatant qRT-PCR
Excerpt: To verify the drugs screened through the GX_P2V drug screening alternative model, we repeatedly tested the antiviral activity of the above drugs on SARS-CoV-2. In brief, Vero E6 cells were pre-seeded in 48-well plates at a density of 5×10^4 cells/well and continued to be cultured overnight. Two hours before infection, the culture supernatant of Vero E6 cells was discarded and replaced with a DMEM medium containing different concentration gradient drugs. Vero E6 cells were continued to be cultured for 2 hours, which was conducive to the early entry of the drugs into the cells. Vero E6 cells were infected with WIV04 at a MOI=0.01 for 1 h. After discarding the supernatant, the cells were washed twice with DMEM, and the medium was changed to a DMEM medium (10%FBS) containing the corresponding concentration of the drug. After 24 h.p.i, the cell supernatant was collected. According to the manufacturer’s instructions, the viral RNA was extract using Magnetic Bead Virus RNA Extraction Kits (Shanghai Fine Gene Biotech, FG438). The viral yield in the cell supernatant was then quantified by qRT-PCR using HiSxript II One step qRT-PCR SYBRGreen Kit (Vazyme, Nanjing, China).

GX_P2V NP protein = type: cell-based, Pangolin coronavirus
SARS-CoV-2 = test system: SARS-CoV-2; parameters: method as in Cao et al., 2020; conditions: SARS-CoV-2 in vitro; ref Cao et al., 2020; cited from earlier work
[1] = Cytotoxicity, CellTiter-Blue Cell Viability Assay; conditions: African green monkey
aldose reductase = conditions: aldose reductase; vendor library annotation; ref Aida K, et al. Planta Med, 1990; read-out: IC50; cited from earlier work
[2] = cited from earlier work; for Solubility in water (in words): library annotation
CYP3A = test system: CYP3A; parameters: method as in Wang CP, et al. J Physiol Biochem. 2014 Sep;70(3):735-47; conditions: ref Wang CP, et al. J Physiol Biochem. 2014 Sep;70(3):735-47; cited from earlier work

Structure (SMILES)	EC50 (GX_P2V) [µM]	SI (SARS-CoV-2 isolate WIV04)	EC50 (SARS-CoV-2 isolate WIV04) [µM]	expression of viral NP protein (GX_P2V NP protein)	CC50 [1] [µM]	CC50 ([1]; Vero E6 cells) [µM]	SI (GX_P2V)	other results
C=C1C(=O)O[C@@]23[C@H]1CC[C@@H](C)[C@@H]2CC[C@@]1(C)O[C@@H]31 [arteannuin B]	8.84	9.72	12	achieved the same inhibitory effect	111	117	–	EC50 (SARS-CoV-2): 10.3 ± 1.12 µM
CCN(CCO)CCCC(C)Nc1ccnc2cc(Cl)ccc12 (stereo not shown) [hydroxychloroquine]	6.59	–	–	–	60.3	–	9.157	–
O=C(/C=C/c1ccc(O)cc1)c1ccc(O)cc1O [Isoliquiritigenin]	–	–	–	–	–	–	–	IC50 (aldose reductase): 0.32 µM
Cc1cccc(C)c1OCC(=O)N[C@@H](Cc1ccccc1)[C@@H](O)C[C@H](Cc1ccccc1)NC(=O)[C@H](C(C)C)N1CCCNC1=O [lopinavir]	11.7	–	–	–	> 25	–	> 2.13	–
C=C1CC[C@@H]2[C@](C)(CO)[C@H](O)CC[C@@]2(C)[C@@H]1C/C=C1/C(=O)OC[C@H]1O [andrographolide]	6.79	8.61	11.1	achieved the same inhibitory effect	95.8	95.7	14.11	–
COc1ccc(-c2cc(=O)c3c(OC)c(OC)c(OC)c(OC)c3o2)cc1OC [Nobiletin]	–	–	–	–	–	–	–	solubility in water ([2]; vendor library annotation, ref Murakami A, et al. Cancer Res, 2000): Nobiletin is a natural polymethoxylated flavone isolated from citrus peels with anti-inflammatory and anti-tumor activities. Nobiletin is practically insoluble (in water) and an extremely weak acidic compound (based on its pKa).
COc1ccc(-c2cc(=O)c3c(O)cc(O[C@@H]4O[C@H](CO)[C@@H](O)[C@H](O)[C@H]4O[C@@H]4O[C@@H](C)[C@H](O)[C@@H](O)[C@H]4O)cc3o2)cc1O [Neodiosmin]	–	–	–	–	–	–	–	aqueous solubility ([2]; ref Mencherini T, et al. Journal of Agricultural and Food Chemistry, 2013, 61(8):1686-1693): 1. Neodiosmin has poor aqueous solubility but exerts a good debittering effect and is a strong antioxidant with potential applications in foods, beverages, and pharmaceutical preparations.
COc1cc(O)ccc1/C=C/C(=O)c1ccc(O)cc1 [echinatin]	20.9	15.27	7.86	most viral NP proteins can be inhibited	158	120	–	–
CCC(CC)COC(=O)[C@H](C)N[P@](=O)(OC[C@H]1O[C@@](C#N)(c2ccc3c(N)ncnn23)[C@H](O)[C@@H]1O)Oc1ccccc1 [remdesivir]	0.74	–	–	–	> 25	–	> 33.78	–
C[C@H]1[C@H](OC(=O)CCC(=O)O)O[C@@H]2O[C@@]3(C)CC[C@H]4[C@H](C)CC[C@@H]1[C@@]24OO3 [artesunate, reference compound]	10.1	7.84	16.2	most viral NP proteins can be inhibited	127	127	–	EC50 (SARS-CoV-2): 13 ± 5.3 µM; Solubility in water (in words) ([2]; ref Xu N, et al. Int J Med Sci. 2015, 12(6):524-529.): Artesunate is part of the artemisinin group of drugs that treat malaria. It is a semi-synthetic derivative of artemisinin that is water-soluble and may therefore be given by injection. It is on the World Health Organization's List of Essential Medicines.
COc1cc2c(c(OC)c1OC)-c1c(cc(OC)c(OC)c1OC)C[C@H](C)[C@H](C)C2 [Schizandrin A]	–	–	–	–	–	–	–	IC50 (CYP3A): 6.6 µM; Ki (CYP3A): 5.83 µM
O=C(/C=C/c1ccc(O)c2c1[C@@H](C(=O)O[C@H](Cc1ccc(O)c(O)c1)C(=O)O)[C@H](c1ccc(O)c(O)c1)O2)O[C@H](Cc1ccc(O)c(O)c1)C(=O)O [lithospermic acid B]	–	–	–	–	–	–	–	Solubility in water (in words) ([2]; ref Wang J, et al. Evidence-Based Complementary and Alternative Medicine, 2013, 2013:1-16.): lithospermic acid B is a water-soluble antioxidant from Salvia extract. It plays significant role of antioxidant effect; antiplatelet aggregation, anticoagulant, and antithrombotic effect
Cc1c(O)cccc1C(=O)N[C@@H](CSc1ccccc1)[C@H](O)CN1C[C@H]2CCCC[C@H]2C[C@H]1C(=O)NC(C)(C)C [nelfinavir]	6.71	–	–	–	39.3	–	5.86	–
